Reference: US5573999A, “β-substituted cinnamic acid derivative” (BASF Aktiengesellschaft, priority 1991, dated 1996)

Key:
[1] = test system: mitochondrial respiration; test: Inhibition of mitochondrial respiration (rate of reduction of cytochrome c in isolated mitochondria), house fly; type: biochemical, Musca domestica; details: DMSO control
Text: (§1) It is also possible similarly to isolate mitochondria from other organisms, e.g. from the phytopathogenic fungus Drechslera sorokiniana (synonym: Helminthosporium sativum), from the dermatophyte Trichophyton mentagrophytes, which is a human pathogen, and, for example, from the house fly (Musca domestica) as insect or from the spider mite Tetranychus urticae.
(§2) Used as control is a mixture with the equivalent amount of pure DMSO. The inhibition at the concentration of agent in each case is then calculated as follows [formula] where ΔE is the change in extinction, at is the change in time, [formula] is the reaction rate for the control and [formula] is the reaction rate for the sample x.
(§3) The inhibition was determined in each case at a test substance concentration of 1.8/10^-5mol/l .

[2] = test system: mitochondrial respiration; test: Inhibition of mitochondrial respiration (rate of reduction of cytochrome c in isolated mitochondria), yeast; type: biochemical, Saccharomyces cerevisiae; details: DMSO control
Text: In order to determine the effect of the compounds according to the invention on mitochondrial respiration it is first necessary to isolate the mitochondria from the organisms being investigated. For this, in the case of the yeast Saccharomyces cerevisiae, the cells in a 30 to 40% strength suspension of the yeast in an aqueous solution of 0.6M mannitol+0.01M tris[hydroxymethyl]-aminomethane+0.002M disodium ethylenediaminetetraacetate (pH 6.8) are disrupted in a glass bead mill, and the extract is fractionated by differential centrifugation at 1000× g and 12000× g. The mitochondria are in the pellet from the 12000× g centrifugation.
as §2, §3

[3] = test system: mitochondrial respiration; test: Inhibition of mitochondrial respiration (rate of reduction of cytochrome c in isolated mitochondria), phytopathogenic fungus; type: biochemical, Drechslera sorokiniana; details: DMSO control
Text: as §1, §2, §3

Plasmopara viticola = test: Activity against Plasmopara viticola on potted vines; type: in vivo; details: aqueous dispersion containing 250 ppm active ingredient, infected 8 days after spraying
Protocol: Leaves of potted vines of the Muller Thurgau variety were sprayed with an aqueous liquor which contained 80% of active ingredient and 20% of emulsifier in dry matter. To assess the duration of action of the active ingredient, after the sprayed-on layer had dried the plants were placed in a greenhouse for 8 days. The leaves were then infected with a suspension of Plasmopara viticola zoospores. The vines were then placed first in a chamber saturated with water vapor at 24° C. for 48 hours and then in a greenhouse at from 20° to 30° C. for 5 days. After this, to speed up sporangiophore discharge, the plants were again placed in the humidity chamber for 16 hours. The extent of fungus attack was then assessed on the undersides of the leaves.

[4] = test system: wheat mildew (Erysiphe graminis var. tritici); test: Activity against wheat mildew on wheat seedlings; type: in vivo; details: aqueous dispersion containing 250 ppm active ingredient, assessed after 7 days
Protocol: Leaves of pot-grown wheat seedlings of the Fruhgold variety were sprayed with an aqueous liquor which contained 80% of active ingredient and 20% of emulsifier in dry matter and, 24 hours after the sprayed-on layer had dried, were dusted with spores of wheat mildew (Erysiphe graminis var. tritici). The test plants were then placed in a greenhouse at from 20° to 22° C. and from 75 to 80% relative humidity. The extent of mildew spread was assessed after 7 days.

Pyricularia oryzae = type: in vivo; details: aqueous dispersion containing 250 ppm active ingredient; rice seedlings, protective, assessed after 6 days

Row | SMILES | % inhibition of respiration at 1.8 × 10^-5 mol/l test substance, Musca domestica [1] [%] | % inhibition of respiration at 1.8 × 10^-5 mol/l test substance, Saccharomyces cerevisiae [2] [%] | % inhibition of respiration at 1.8 × 10^-5 mol/l test substance, Drechslera sorokiniana [3] [%] | fungal attack, Plasmopara viticola (Plasmopara viticola) [%] | fungal attack, wheat mildew [4] [%] | fungal attack, Pyricularia oryzae (Pyricularia oryzae) [%]
1 | COC(=O)/C=C(/OC)c1ccccc1COc1cccc(C=NOCc2ccccc2Cl)c1 [Compound 1a.64] | 93 | 94 | 98 |  |  | 
2 | COC(=O)/C=C(/OC)c1ccccc1/C=C/c1ccc(-c2ccccc2)cc1 [Compound 1a.268, methyl 2-[2-(4-phenylphenyl)-(E)-ethenyl]-(E)-β-methoxycinnamate] | 95 | 95 | 97 |  |  | 
3 | COC(=O)/C=C(/OC)c1ccccc1/C=C/c1ccccc1[N+](=O)[O-] [Compound 1a.238] | 87 | 99 | 74 | 10 |  | 
4 | CON=C(C)c1cc(C)c(OCc2ccccc2/C(=C\C(=O)OC)OC)cc1C [Compound 1a.61] | 97 | 98 |  | 10 | 15 | 
5 | O=C(C=C(c1ccccc1)c1ccccc1)N1CCOCC1 [A, morpholide of β-phenylcinnamic acid, reference compound] | 5 | 2 | 0 | 35 | 45 | 60
6 | COC(=O)/C=C(/OC)c1ccccc1/C=C/c1csc(-c2ccc(Cl)cc2)n1 [Compound 1a.314] |  | 99 |  |  |  | 15
7 | C=CCON=Cc1cccc(OCc2ccccc2/C(=C\C(=O)OC)OC)c1 [Compound 1a.63] | 85 | 93 |  | 10 | 15 | 
8 | COC(=O)/C=C(/OC)c1ccccc1/C=C/c1ccoc1 [Compound 1a.292] | 61 | 87 | 79 |  | 15 | 
9 | COC(=O)/C=C(/OC)c1ccccc1/C=C\c1ccccc1[N+](=O)[O-] [Compound 1a.239] | 16 | 44 |  |  | 15 | 
10 | COC(=O)/C=C(/OC)c1ccccc1/C=C\c1cccc(C(F)(F)F)c1 [Compound 1a.246] | 81 | 84 |  |  | 15 | 
11 | CO/N=C(\C)c1ccc(OCc2ccccc2/C(=C\C(=O)OC)OC)c(C)c1 [Compound 1a.72, methyl (E)-β-methoxy-2-[2-methyl-4-(1-methoximinoethyl)phenoxymethyl]cinnamate] | 94 | 98 | 100 | 10 | 15 | 15
12 | COC(=O)/C=C(/OC)c1ccccc1COc1ccccc1C [Compound 1a.2] | 21 | 88 |  |  | 15 | 
13 | COC(=O)/C=C(/OC)c1ccccc1/C=C/c1ccccc1C(F)(F)F [Compound 1a.243] | 89 | 99 | 94 |  |  | 
14 | COC(=O)/C=C(/OC)c1ccccc1/C=C\c1ccc(-c2ccccc2)cc1 [Compound 1a.269, methyl 2-[2-(4-phenylphenyl)-(Z)-ethenyl]-(E)-β-methoxycinnamate] | 76 | 96 | 81 |  |  | 
15 | COC(=O)/C=C(/OC)c1ccccc1COc1ccc(C(C)=NOCC(C)C)cc1C [Compound 1a.60] | 93 | 97 | 99 |  | 15 | 
16 | COC(=O)/C=C(/OC)c1ccccc1/C=C/c1coc(-c2ccc(Cl)cc2)n1 [Compound 1a.302] | 96 | 97 |  |  |  | 15
17 | COC(=O)/C=C(/OC)c1ccccc1COc1nc(-c2ccccc2)cs1 [Compound 1a.181, methyl (E)-β-methoxy-2-(4-phenyl-2-thiazolyloxymethyl)cinnamate] |  | 99 |  |  |  | 15
18 | COC(=O)/C=C(/OC)c1ccccc1/C=C/c1ccn(-c2ccc(Cl)cc2)c1 [Compound 1a.304] | 96 | 97 |  |  | 15 | 
19 | COC(=O)/C=C(/OC)c1ccccc1/C=C/c1cccs1 [Compound 1a.294] | 95 | 98 |  |  | 15 | 
20 | COC(=O)/C=C(/OC)c1ccccc1/C=C/c1ccc(Oc2ccccc2)cc1 [Compound 1a.273] | 95 | 95 | 96 |  |  | 
21 | COC(=O)/C=C(/OC)c1ccccc1CON=C(C)c1ccc(Cl)cc1 [Compound 1a.356, methyl2-[1-(4-chlorophenyl)ethylideneaminoxymethyl]-(E)-β-methoxycinnamate] |  |  |  | 10 | 15 | 15
22 | COC(=O)/C=C(/OC)c1ccccc1/C=C\c1ccccc1C [Compound 1a.248] |  | 95 |  |  | 15 | 15
